Results: ChEMBL document CHEMBL1132846, “Synthesis and biological evaluation of highly potent analogues of epothilones B and D” (Bioorg Med Chem Lett, 2000)

Key:
KB 3-1 = experiment: Concentration required to inhibit the growth of paclitaxel-sensitive human epidermoid carcinoma cells KB-31 by 50 percent (72 hr exposure); type: functional, cell-based; settings: KB 3-1, 72 h
KB = experiment: Concentration required to inhibit the growth of paclitaxel-resistant human epidermoid carcinoma cells KB-8511 by 50 percent (72 hr exposure); type: functional, cell-based
Sus scrofa [1] = species on record: Sus scrofa; experiment: Induction of polymerization of porcine brain-derived microtubule protein by 2 uM epothilone B; type: functional
Sus scrofa [2] = species on record: Sus scrofa; experiment: Concentrations required to induce 50 percent polymerization of porcine brain-derived micro-tubule protein; type: functional

| Compound | IC50 (KB 3-1) [nM] | IC50 (KB) [nM] | Tubulin polymerization (Sus scrofa [1]) [%] | EC50 (Sus scrofa [2]) [nM] |
| --- | --- | --- | --- | --- |
| Cc1nc2cc([C@@H]3C[C@@H]4O[C@]4(C)CCC[C@H](C)[C@H](O)[C@@H](C)C(=O)C(C)(C)[C@@H](O)CC(=O)O3)ccc2n1C | 0.14 | 0.38 | 99 | – |
| C/C1=C/C[C@@H](c2ccc3sc(C)nc3c2)OC(=O)C[C@H](O)C(C)(C)C(=O)[C@H](C)[C@@H](O)[C@@H](C)CCC1 | 0.45 | 0.23 | 76 | 930 |
| C/C(=C\c1csc(C)n1)[C@@H]1C[C@@H]2O[C@]2(C)CCC[C@H](C)[C@H](O)[C@@H](C)C(=O)C(C)(C)[C@@H](O)CC(=O)O1 [PATUPILONE] | 0.19 | 0.18 | 90 | 670 |
| C/C(=C\c1ccccn1)[C@@H]1C[C@@H]2O[C@]2(C)CCC[C@H](C)[C@H](O)[C@@H](C)C(=O)C(C)(C)[C@@H](O)CC(=O)O1 | 0.3 | 0.3 | – | – |
| C[C@H]1CCC[C@@]2(C)O[C@H]2C[C@@H](c2ccc3cccnc3c2)OC(=O)C[C@H](O)C(C)(C)C(=O)[C@H](C)[C@H]1O | 0.11 | 0.1 | 78 | – |
| C/C1=C/C[C@@H](c2ccc3c(c2)ncn3C)OC(=O)C[C@H](O)C(C)(C)C(=O)[C@H](C)[C@@H](O)[C@@H](C)CCC1 | 0.46 | 0.91 | 86 | – |
| C[C@H]1CCC[C@@]2(C)O[C@H]2C[C@@H](c2ccc3c(c2)ncn3C)OC(=O)C[C@H](O)C(C)(C)C(=O)[C@H](C)[C@H]1O | 0.13 | 0.46 | 97 | – |
| CC(=O)O[C@H]1C(=O)[C@@]2(C)[C@H]([C@H](OC(=O)c3ccccc3)[C@]3(O)C[C@H](OC(=O)[C@H](O)[C@@H](NC(=O)c4ccccc4)c4ccccc4)C(C)=C1C3(C)C)[C@]1(OC(C)=O)CO[C@@H]1C[C@@H]2O [PACLITAXEL] | 2.92 | 626 | 49 | – |
| C/C1=C/C[C@@H](/C(C)=C/c2csc(C)n2)OC(=O)C[C@H](O)C(C)(C)C(=O)[C@H](C)[C@@H](O)[C@@H](C)CCC1 [EPOTHILONE D] | 2.7 | 1.44 | 83 | 880 |
| C/C1=C/C[C@@H](c2ccc3c(c2)nc(C)n3C)OC(=O)C[C@H](O)C(C)(C)C(=O)[C@H](C)[C@@H](O)[C@@H](C)CCC1 | 0.21 | 0.73 | 94 | – |
| C/C1=C/C[C@@H](c2ccc3cccnc3c2)OC(=O)C[C@H](O)C(C)(C)C(=O)[C@H](C)[C@@H](O)[C@@H](C)CCC1 | 0.59 | 0.38 | 90 | – |
| C/C(=C\c1csc(C)n1)[C@@H]1C[C@@H]2O[C@@H]2CCC[C@H](C)[C@H](O)[C@@H](C)C(=O)C(C)(C)[C@@H](O)CC(=O)O1 [EPOTHILONE A] | 2.15 | 1.91 | 69 | 1120 |
| Cc1nc2cc([C@@H]3C[C@@H]4O[C@]4(C)CCC[C@H](C)[C@H](O)[C@@H](C)C(=O)C(C)(C)[C@@H](O)CC(=O)O3)ccc2s1 | 0.13 | 0.09 | 83 | – |
